Data taken from patent US5314896A, “1,3-substituted cycloalkenes and cycloalkanes as central nervous system agents” (priority 1992, dated 1994).
Read-outs that look alike come from different tables or passages of the source.

Experiments:
dopamine receptors [1] = experiment: Inhibition of [^3 H] spiroperidol binding
Experimental: (§1) The compounds of Formula I are valuable dopaminergic agents. […] Thus, the compounds of Formula I were tested for their ability to inhibit locomotor activity in mice and rats, a measure of antipsychotic activity, according to the assay described by J. R. McLean, et al, Pharmacology, Biochemistry and Behavior, Vol. 8, pages 97-99 (1978); for their ability to bind to dopamine receptors as measured by their inhibition of [^3 H]spiroperidol binding in a receptor assay described by D. Grigoriadis and P. Seeman, Journal of Neurochemistry, Vol. 44, pages 1925-1935 (1985); and for their ability to effect dopamine synthesis in rats according to the protocol described by J. R. Walters and R. H. Roth, Naunyn-Schmiedebero's Archives of Pharmacology, Vol. 296, pages 5-14 (1976). The above test methods are incorporated herein by reference. The data in the table show the dopaminergic activity of representative compounds of Formula I.

dopamine receptors [2] = experiment: Comparison of 1,3 versus 1,4 series activity (binding and locomotor activity), results in words; settings: Table 2
Experimental: (§2) Thus, the compounds of Formula I were tested for their ability to inhibit locomotor activity in mice and rats, a measure of antipsychotic activity, according to the assay described by J. R. McLean, et al, Pharmacology, Biochemistry and Behavior, Vol. 8, pages 97-99 (1978); for their ability to bind to dopamine receptors as measured by their inhibition of [^3 H]spiroperidol binding in a receptor assay described by D. Grigoriadis and P. Seeman, Journal of Neurochemistry, Vol. 44, pages 1925-1935 (1985); and for their ability to effect dopamine synthesis in rats according to the protocol described by J. R. Walters and R. H. Roth, Naunyn-Schmiedebero's Archives of Pharmacology, Vol. 296, pages 5-14 (1976). The above test methods are incorporated herein by reference.
(§3) The most important test is the locomotor activity orally in the rat as this corresponds most closely to human oral administration of an antipsychotic compound.

[3] = test system: Locomotor Activity in Mice; experiment: Inhibition of locomotor activity in mice; assay type: in vivo; settings: Mus musculus
Experimental: as §1

[4] = test system: Locomotor Activity in Rats; experiment: Inhibition of locomotor activity in rats (oral); assay type: in vivo
Experimental: as §2, §3

Brain Dopamine Synthesis = experiment: % effects on brain dopamine synthesis in rats; assay type: in vivo; settings: Rattus norvegicus
Experimental: as §1

[5] = mice, IP (Table 2), read-out: Inhibition of Locomotor Activity in Mice ED50
[6] = ip, read-out: Inhibition of Locomotor Activity in Mice ED50, mice, IP (Table 1)
[7] = ip, read-out: % Effects on Brain Dopamine Synthesis in Rats, rats, 10 mg/kg, IP (Table 1)
[8] = mice, IP (Table 1), read-out: Inhibition of Locomotor Activity in Mice ED50
[9] = rats, 10 mg/kg, IP (Table 1), read-out: % Effects on Brain Dopamine Synthesis in Rats

| SMILES | IC50 (dopamine receptors [1]; Table 1) | ED50 [3, 6] | change in vivo at 10 mg/kg (Brain Dopamine Synthesis; [7]) | also measured |
| --- | --- | --- | --- | --- |
| C1=C(c2ccccc2)CC(N2CCN(c3ccccn3)CC2)CC1 (racemic) [Compound J, (±)-1-(3-phenyl-3-cyclohexen-1-yl)-4-(2-pyridinyl)piperazine, reference compound] |  |  |  | IC50 (dopamine receptors [1]; Table 2): 9.85 µM; binding and locomotor activity (dopamine receptors [2]): essentially inactive; ED50 [3, 5]: 28.2 mg/kg |
| C1=C(c2ccccc2)CCN(CC2CCC=C(c3ccccc3)C2)C1 (racemic) [Example 1, (±)-1,2,3,6-Tetrahydro-4-phenyl-1-[(3-phenyl-3-cyclohexen-1-yl)methyl]pyridine] | 0.072 µM | 1.6 mg/kg | -86% | locomotor activity orally in the rat ([4]; Table 2 compounds): clearly the most potent; times more active than the 1,4 Compound C, locomotor activity orally in the rat ([4]; versus Compound C): 4.8 times; IC50 (dopamine receptors [1]; Table 2): 0.072 µM; binding and locomotor activity (dopamine receptors [2]): surprisingly much more active in its binding and locomotor activity; ED50 ([3]; ip, read-out: Inhibition of Locomotor Activity in Mice ED50, mice, IP (Table 2)): 1.6 mg/kg |
| C1=C(c2ccccc2)CC(CN2CCN(c3ccccn3)CC2)CC1 (racemic) [Example 4, (±)-1-[(3-phenyl-3-cyclohexen-1-yl)methyl]-4-(2-pyridinyl)piperazine] | 0.141 µM |  |  | IC50 (dopamine receptors [1]; Table 2): 0.141 µM; binding and locomotor activity (dopamine receptors [2]): very potent; ED50 [3, 8]: 0.85 mg/kg; change in vivo at 10 mg/kg (Brain Dopamine Synthesis; [9]): -61% |
| C1=C(c2ccccc2)CCC(N2CCN(c3ccccn3)CC2)C1 (racemic) [F, (±)-1-(4-phenyl-3-cyclohexen-1-yl)-4-(2-pyridinyl)piperazine, reference compound] |  |  |  | IC50 (dopamine receptors [1]; Table 2): 0.599 µM; binding and locomotor activity (dopamine receptors [2]): much more active than Compound G; ED50 [3, 5]: 1.01 mg/kg |
| C1=C(c2ccccc2)CCC(CCN2CCN(c3ccccn3)CC2)C1 (racemic) [H, (±)-1-[(4-phenyl-3-cyclohexen-1-yl)ethyl]-4-(2-pyridinyl)piperazine, reference compound] |  |  |  | IC50 (dopamine receptors [1]; Table 2): 0.409 µM; binding and locomotor activity (dopamine receptors [2]): much more active than Compound G; ED50 [3, 5]: 1.1 mg/kg |
| Fc1ccc(C2=CCC[C@@H](CN3CC=C(c4ccccc4)CC3)C2)cc1 [Example 8, (R)-1-[[3-(4-fluorophenyl)-3-cyclohexen-1-yl]methyl]-1,2,3,6-tetrahydro-4-phenylpyridine] | 0.076 µM | 4 mg/kg | -74% |  |
| Cc1ccc(C2=CCC[C@@H](CN3CC=C(c4ccccc4)CC3)C2)cc1 [Example 9, (R)-1,2,3,6-tetrahydro-1-[[3-(4-methylphenyl)-3-cyclohexen-1-yl]methyl]-4-phenylpyridine] | 0.184 µM | 0.8 mg/kg | -42% |  |
| C1=C(c2ccccc2)CCN(C[C@@H]2CCC=C(c3cccs3)C2)C1.Cl [Example 10, (R)-1,2,3,6-tetrahydro-4-phenyl-1-[[3-(2-thienyl)-3-cyclohexen-1-yl]methyl]pyridine monohydrochloride] | 0.079 µM | 1.6 mg/kg | -54% |  |
| C1=C(c2ccccc2)CCN(C[C@H]2C=C(c3cccs3)CCC2)C1.Cl [Example 10a, (R)-1,2,3,6-tetrahydro-4-phenyl-1-[[3-(2-thienyl)-2-cyclohexen-1-yl]methyl]pyridine monohydrochloride] | 0.11 µM | 1.5 mg/kg | -58% |  |
| COc1ccc(C2=CCC[C@@H](CN3CC=C(c4ccccc4)CC3)C2)cc1.Cl [Example 11, (R)-1,2,3,6-tetrahydro-1-[[3-(4-methoxyphenyl)-3-cyclohexen-1-yl]methyl]-4-phenylpyridine monohydrochloride] | 0.1 µM | 0.37 mg/kg | -47% |  |
| C1=C(c2ccccc2)CCN(C[C@@H]2CCC=C(c3cccnc3)C2)C1.Cl [Example 12, (R)-3-[5-[(3,6-dihydro-4-phenyl-1(2H)-pyridinyl)methyl]-1-cyclohexen-1-yl]pyridine monohydrochloride] | 0.082 µM | 0.01 mg/kg | -85% |  |
| C1=C(c2cccnc2)CCC[C@H]1CN1CC=C(c2ccccc2)CC1.Cl.Cl [Example 12a, (R)-3-[3-[(3,6-dihydro-4-phenyl-1(2H)-pyridinyl)methyl]-1-cyclohexen-1-yl]pyridine dihydrochloride] | 0.087 µM | 0.07 mg/kg | -97% |  |
| CN(C)c1ccc(C2=CCC[C@@H](CN3CC=C(c4ccccc4)CC3)C2)cc1 [Example 16, (R)-4-[5-[(3,6-dihydro-4-phenyl-1(2H)-pyridinyl)methyl]-1-cyclohexen-1-yl]-N,N-dimethylbenzeneamine] | 0.053 µM | 0.2 mg/kg | -76% |  |
| C1=C(c2ccccc2)CCN(C[C@@H]2CCC=C(c3cnc4ccccc4c3)C2)C1 [Example 17, (R)-3-[5-[(3,6-dihydro-4-phenyl-1(2H)-pyridinyl)methyl]-1-cyclohexen-1-yl]quinoline] | 0.076 µM | 0.23 mg/kg | -21% |  |
| O=C(N[C@H]1CCC[C@@H](CN2CC=C(c3ccccc3)CC2)C1)c1ccccc1 [Example 19, (1S-cis)-N-[3-[(3,6-dihydro-4-phenyl-1(2H)-pyridinyl)methyl]cyclohexyl]benzamide] | 0.034 µM | 0.15 mg/kg | -95% |  |
| C1=C(c2ccccc2)CCN(C[C@@H]2CCC[C@H](c3ccccc3)C2)C1.Cl [Example 20, (1R-cis) 1,2,3,6-tetrahydro-4-phenyl-1-[(3-phenylcyclohexyl)methyl]pyridine monohydrochloride] | 0.071 µM | 0.7 mg/kg | -100% |  |
| C1=C(c2ccccc2)C[C@H](CN2CCN(c3ccccn3)CC2)CC1 [Example 21, (R)-1-[(3-Phenyl-3-cyclohexen-1-yl)methyl]-4-(2-pyridinyl)piperazine] | 0.076 µM |  |  | ED50 [3, 8]: 9.9 mg/kg; change in vivo at 10 mg/kg (Brain Dopamine Synthesis; [9]): -27% |
